# Measured values from patent US20240307426A1, “USE OF SGLT-2 INHIBITORS FOR THE PREVENTION AND/OR TREATMENT OF RENAL DISEASES IN NON-HUMAN MAMMALS” (BOEHRINGER INGELHEIM VETMEDICA GMBH, priority 2021, published 2024).
# Test system: cats with chronic kidney disease (CKD)
# Assay: Exploratory clinical field trial in cats with CKD (Example 3)
# Assay type: in vivo, cat
# Parameters: key to IRIS Stage (based on serum creatinine level) / IRIS Stage (based on creatinine level) / IRIS Stage (based on the creatinine level): IRIS CKD stage assigned from serum creatinine (IRIS 2019)
# Details: for Phosphorus: ref 0.8-2.2; for Serum creatinine: ref 0.9-2.3; for Potassium: ref 3.3-5.8; for UPC: ref <0.33
# Description: The clinical trial was conducted at three animal clinics. Overall, 9 cats with chronic kidney disease (CKD) were included in the study and treated once daily orally with 1 mg/kg bodyweight velagliflozin for up to 150 days (depending on the time of enrollment).
# Diagnosis of CKD was based on two measurements of serum creatinine concentration at least 2 weeks apart from each other (historical value and screening, and value at screening in fasted cats), as recommended by the International Renal Interest Society (IRIS 2019). In order to qualify for enrollment, serum creatinine levels needed to be ≥2.2 mg/dL, but <5.0 mg/dL.
# Disease staging throughout the study was performed based on serum creatinine levels in accordance with the IRIS CKD staging (IRIS 2019).
# All other cats were treated for >90 days had at least data for two time points under treatment available and were therefore evaluated. Progression of the disease, as well as IRIS staging in this study was based on the most reliable biomarker: serum creatinine.
# [1] = case 200-001, 1 mg/kg po once daily
# [2] = case 200-001, 1 mg/kg po once daily, whole study
# [3] = case 200-001, Visit 1 (Day 30), 1 mg/kg po once daily
# [4] = case 200-001, Visit 2 (Day 90), 1 mg/kg po once daily
# [5] = case 200-001, Visit 3 (Day 111), 1 mg/kg po once daily
# [6] = case 200-001, screening visit (before treatment)
# [7] = case 200-003 (IRIS stage 3), removed early on day 30
# [8] = case 200-004, 1 mg/kg po once daily, whole study
# [9] = case 200-004, Visit 1 (Day 30), 1 mg/kg po once daily
# [10] = case 200-004, Visit 2 (Day 90), 1 mg/kg po once daily
# [11] = case 200-004, Visit 3 (Day 143), 1 mg/kg po once daily
# [12] = case 200-004, screening visit (before treatment)
# [13] = case 200-005, 1 mg/kg po once daily
# [14] = case 200-005, 1 mg/kg po once daily, whole study
# [15] = case 200-005, Visit 1 (Day 30), 1 mg/kg po once daily
# [16] = case 200-005, Visit 2 (Day 90), 1 mg/kg po once daily
# [17] = case 200-005, Visit 3 (Day 128), 1 mg/kg po once daily
# [18] = case 200-005, screening visit (before treatment)
# [19] = case 200-006, 1 mg/kg po once daily
# [20] = case 200-006, 1 mg/kg po once daily, whole study
# [21] = case 200-006, Visit 1 (Day 30), 1 mg/kg po once daily
# [22] = case 200-006, Visit 2 (Day 90), 1 mg/kg po once daily
compound,measurement,setting,value
"N#Cc1ccc([C@@H]2O[C@H](CO)[C@@H](O)[C@H](O)[C@H]2O)cc1Cc1ccc(C2CC2)cc1 [velagliflozin, Velagliflozin]",decrease in serum creatinine within the observation period,"3 of the seven evaluated cats, 1 mg/kg po once daily",≥ 10%
same,renal parameters and clinical signs,"IRIS stage 2 and 3 CKD cats, 1 mg/kg orally once daily",stabilized or even improved
same,expected glucosuric effect,all cats except cat 200-004 (no data recorded),confirmed
same,Hematocrit,all cats under oral treatment with 1 mg/kg bodyweight,remained within the reference range
same,Systolic blood pressure,"all cats, during the course of the study",< 160 mmHg
same,serum phosphate levels,"all evaluated cases, except one measurement for case 200-001 on day 90",remained within the laboratories reference range throughout the study
same,Proteinuria (UPC),"all patients, 1 mg/kg po once daily",≤ 0.33
same,Serum potassium levels,"all treated cats, 1 mg/kg po once daily",stayed within the reference range
same,adverse events,[1],Two adverse events were reported for this patient: pectin responsive diarrhea for one day and pancreatitis
same,expected glucosuric effect,[1],confirmed
same,Quality of life according to the owner (course),[2],remained very good
same,Serum potassium levels (course),[2],decreased within the reference range
same,UPC (course),[2],improved from 0.4 to 0.2
same,appetite and drinking behavior (course),[2],remained normal
same,condition (clinical signs and biochemical parameters),[2],stabilization of the condition
same,course of BUN,[2],remained stable
same,course of serum creatinine,[2],remained stable with one single measurement on Day 90 being increased
same,total urine protein,[2],reduced
same,BUN,[3],38 mg/dL
same,IRIS Stage (based on the creatinine level),[3],2
same,Owner assessment - quality of life,[3],very good
same,Owner assessment of the appetite,[3],normal
same,Owner assessment of the drinking behavior,[3],normal
same,Systolic blood pressure,[3],126.7 mmHg
same,Phosphorus,[3],1.3 mmol/L
same,Serum creatinine,[3],2.6 mg/dL
same,Potassium,[3],4.6 mmol/L
same,Hematocrit,"case 200-001, Visit 1 (Day 30), 1 mg/kg po once daily, ref 28.2-52.7",38.5%
same,BUN,[4],47 mg/dL
same,IRIS Stage (based on the creatinine level),[4],3
same,Owner assessment - quality of life,[4],very good
same,Owner assessment of the appetite,[4],normal
same,Owner assessment of the drinking behavior,[4],normal
same,Systolic blood pressure,[4],122.7 mmHg
same,Phosphorus,[4],2.4 mmol/L
same,Serum creatinine,[4],3.2 mg/dL
same,Potassium,[4],4.3 mmol/L
same,Hematocrit,"case 200-001, Visit 2 (Day 90), 1 mg/kg po once daily, ref 28.2-52.7",34.6%
same,UPC,[4],0.2
same,BUN,[5],41 mg/dL
same,IRIS Stage (based on the creatinine level),[5],2
same,Owner assessment - quality of life,[5],very good
same,Owner assessment of the appetite,[5],normal
same,Owner assessment of the drinking behavior,[5],normal
same,Systolic blood pressure,[5],131.3 mmHg
same,Phosphorus,[5],1.6 mmol/L
same,Serum creatinine,[5],2.6 mg/dL
same,Potassium,[5],4.3 mmol/L
same,Hematocrit,"case 200-001, Visit 3 (Day 111), 1 mg/kg po once daily, ref 28.2-52.7",32.6%
same,BUN,[6],39 mg/dL
same,IRIS Stage (based on the creatinine level),[6],2
same,Owner assessment - quality of life,[6],very good
same,Owner assessment of the appetite,[6],normal
same,Owner assessment of the drinking behavior,[6],normal
same,Systolic blood pressure,[6],152.0 mmHg
same,Phosphorus,[6],1.4 mmol/L
same,Serum creatinine,[6],2.6 mg/dL
same,Potassium,[6],5.2 mmol/L
same,Hematocrit,"case 200-001, screening visit (before treatment), ref 28.2-52.7",37.4%
same,UPC,[6],0.4
same,appetite and drinking behavior,[7],improving to normal
same,laboratory parameters,[7],worsening of a single measurement of laboratory parameters
same,quality of life,[7],good quality of life
same,adverse events,"case 200-004, 1 mg/kg po once daily",No adverse event was reported
same,Quality of life according to the owner (course),[8],remained very good
same,appetite and drinking behavior (course),[8],remained normal
same,change of IRIS stage of the disease,[8],from 3 to 2
same,condition (biochemical parameters),[8],improvement of the condition
same,course of serum creatinine,[8],decreased by a clinically relevant amount
same,BUN,[9],42 mg/dL
same,IRIS Stage (based on serum creatinine level),[9],2
same,Owner assessment - quality of life,[9],very good
same,Owner assessment of the appetite,[9],normal
same,Owner assessment of the drinking behavior,[9],normal
same,Systolic blood pressure,[9],148.0 mmHg
same,Phosphorus,[9],1.3 mmol/L
same,Serum creatinine,[9],2.7 mg/dL
same,Potassium,[9],4.5 mmol/L
same,Hematocrit,"case 200-004, Visit 1 (Day 30), 1 mg/kg po once daily, ref 28.2-52.7",37.0%
same,BUN,[10],36 mg/dL
same,IRIS Stage (based on serum creatinine level),[10],2
same,Owner assessment - quality of life,[10],very good
same,Owner assessment of the appetite,[10],normal
same,Owner assessment of the drinking behavior,[10],normal
same,Systolic blood pressure,[10],129.3 mmHg
same,Phosphorus,[10],1.3 mmol/L
same,Serum creatinine,[10],2.5 mg/dL
same,Potassium,[10],4.9 mmol/L
same,Hematocrit,"case 200-004, Visit 2 (Day 90), 1 mg/kg po once daily, ref 28.2-52.7",32.9%
same,BUN,[11],38 mg/dL
same,IRIS Stage (based on serum creatinine level),[11],2
same,Owner assessment - quality of life,[11],very good
same,Owner assessment of the appetite,[11],normal
same,Owner assessment of the drinking behavior,[11],normal
same,Systolic blood pressure,[11],148.7 mmHg
same,Phosphorus,[11],1.2 mmol/L
same,Serum creatinine,[11],2.6 mg/dL
same,Potassium,[11],4.9 mmol/L
same,Hematocrit,"case 200-004, Visit 3 (Day 143), 1 mg/kg po once daily, ref 28.2-52.7",34.8%
same,BUN,[12],46 mg/dL
same,IRIS Stage (based on serum creatinine level),[12],3
same,Owner assessment - quality of life,[12],very good
same,Owner assessment of the appetite,[12],normal
same,Owner assessment of the drinking behavior,[12],normal
same,Systolic blood pressure,[12],130.7 mmHg
same,Phosphorus,[12],1.2 mmol/L
same,Serum creatinine,[12],2.9 mg/dL
same,Potassium,[12],4.9 mmol/L
same,Hematocrit,"case 200-004, screening visit (before treatment), ref 28.2-52.7",33.4%
same,UPC,[12],0.1
same,Quality of life according to the owner,[13],good
same,adverse events,[13],No adverse event was reported
same,expected glucosuric effect,[13],confirmed
same,Serum potassium levels (course),[14],remained stable
same,UPC ratio (remained at),[14],0.1
same,appetite and drinking behavior (course),[14],remained normal
same,condition (clinical signs and biochemical parameters),[14],stabilization of the condition
same,course of BUN,[14],remained stable
same,course of serum creatinine,[14],decreased
same,total urine protein,[14],reduced
same,BUN,[15],37 mg/dL
same,IRIS Stage (based on the creatinine level),[15],2
same,Owner assessment - quality of life,[15],very good
same,Owner assessment of the appetite,[15],normal
same,Owner assessment of the drinking behavior,[15],normal
same,Systolic blood pressure,[15],148.0 mmHg
same,Phosphorus,[15],1.0 mmol/L
same,Serum creatinine,[15],2.0 mg/dL
same,Potassium,[15],4.0 mmol/L
same,Hematocrit,"case 200-005, Visit 1 (Day 30), 1 mg/kg po once daily, ref 28.2-52.7",45.1%
same,BUN,[16],32 mg/dL
same,IRIS Stage (based on the creatinine level),[16],2
same,Owner assessment - quality of life,[16],good
same,Owner assessment of the appetite,[16],normal
same,Owner assessment of the drinking behavior,[16],normal
same,Systolic blood pressure,[16],130.0 mmHg
same,Phosphorus,[16],1.3 mmol/L
same,Serum creatinine,[16],1.9 mg/dL
same,Potassium,[16],3.9 mmol/L
same,Hematocrit,"case 200-005, Visit 2 (Day 90), 1 mg/kg po once daily, ref 28.2-52.7",39.2%
same,UPC,[16],0.1
same,BUN,[17],37 mg/dL
same,IRIS Stage (based on the creatinine level),[17],2
same,Owner assessment - quality of life,[17],good
same,Owner assessment of the appetite,[17],normal
same,Owner assessment of the drinking behavior,[17],normal
same,Systolic blood pressure,[17],123.3 mmHg
same,Phosphorus,[17],1.1 mmol/L
same,Serum creatinine,[17],1.9 mg/dL
same,Potassium,[17],4.0 mmol/L
same,Hematocrit,"case 200-005, Visit 3 (Day 128), 1 mg/kg po once daily, ref 28.2-52.7",40.4%
same,BUN,[18],37 mg/dL
same,IRIS Stage (based on the creatinine level),[18],2
same,Owner assessment - quality of life,[18],very good
same,Owner assessment of the appetite,[18],normal
same,Owner assessment of the drinking behavior,[18],normal
same,Systolic blood pressure,[18],139.3 mmHg
same,Serum creatinine,[18],2.2 mg/dL
same,Potassium,[18],4.9 mmol/L
same,Hematocrit,"case 200-005, screening visit (before treatment), ref 28.2-52.7",42.3%
same,UPC,[18],0.1
same,adverse events,[19],"Three adverse events were reported: diarrhoea, vomitus as well as cystitis"
same,expected glucosuric effect,[19],confirmed
same,Quality of life according to the owner (course),[20],remained good
same,Serum creatinine and BUN (course),[20],remained stable
same,Serum potassium levels (course),[20],remained within the reference range
same,Total urine protein and UPC,[20],remained within the reference range
same,appetite (course),[20],improved to normal
same,condition (clinical signs and biochemical parameters),[20],stable condition
same,drinking behavior (course),"case 200-006, 1 mg/kg po once daily, whole study, worsening potentially due to cystitis",improved to normal but worsened again to excessive
same,BUN,[21],41 mg/dL
same,IRIS Stage (based on the creatinine level),[21],2
same,Owner assessment - quality of life,[21],good
same,Owner assessment of the appetite,[21],normal
same,Owner assessment of the drinking behavior,[21],normal
same,Systolic blood pressure,[21],139.3 mmHg
same,Phosphorus,[21],1.9 mmol/L
same,Serum creatinine,[21],2.7 mg/dL
same,Potassium,[21],3.9 mmol/L
same,Hematocrit,"case 200-006, Visit 1 (Day 30), 1 mg/kg po once daily, ref 28.2-52.7",38.1%
same,BUN,[22],30 mg/dL
same,IRIS Stage (based on the creatinine level),[22],2
same,Owner assessment - quality of life,[22],good
same,Owner assessment of the appetite,[22],normal
same,Owner assessment of the drinking behavior,[22],excessive
